In patent US10035801B2, “Pyrazolo compounds and uses thereof” (CONSTELLATION PHARMACEUTICALS, INC., priority 2013, dated 2018):

Biological target: T1, KDM5A (Homo sapiens, UniProt P29375)
T1 construct: Full length KDM5A enzyme was expressed and purified inhouse; made in house
Assay: KDM5 enzyme assay, KDM5A HTRF (Example 463)
Format: biochemical
Settings: compounds of Examples 1-432; read-out: Example 463 Assay KDM5A HTRF IC50

T1 sequence (P29375 whole entry): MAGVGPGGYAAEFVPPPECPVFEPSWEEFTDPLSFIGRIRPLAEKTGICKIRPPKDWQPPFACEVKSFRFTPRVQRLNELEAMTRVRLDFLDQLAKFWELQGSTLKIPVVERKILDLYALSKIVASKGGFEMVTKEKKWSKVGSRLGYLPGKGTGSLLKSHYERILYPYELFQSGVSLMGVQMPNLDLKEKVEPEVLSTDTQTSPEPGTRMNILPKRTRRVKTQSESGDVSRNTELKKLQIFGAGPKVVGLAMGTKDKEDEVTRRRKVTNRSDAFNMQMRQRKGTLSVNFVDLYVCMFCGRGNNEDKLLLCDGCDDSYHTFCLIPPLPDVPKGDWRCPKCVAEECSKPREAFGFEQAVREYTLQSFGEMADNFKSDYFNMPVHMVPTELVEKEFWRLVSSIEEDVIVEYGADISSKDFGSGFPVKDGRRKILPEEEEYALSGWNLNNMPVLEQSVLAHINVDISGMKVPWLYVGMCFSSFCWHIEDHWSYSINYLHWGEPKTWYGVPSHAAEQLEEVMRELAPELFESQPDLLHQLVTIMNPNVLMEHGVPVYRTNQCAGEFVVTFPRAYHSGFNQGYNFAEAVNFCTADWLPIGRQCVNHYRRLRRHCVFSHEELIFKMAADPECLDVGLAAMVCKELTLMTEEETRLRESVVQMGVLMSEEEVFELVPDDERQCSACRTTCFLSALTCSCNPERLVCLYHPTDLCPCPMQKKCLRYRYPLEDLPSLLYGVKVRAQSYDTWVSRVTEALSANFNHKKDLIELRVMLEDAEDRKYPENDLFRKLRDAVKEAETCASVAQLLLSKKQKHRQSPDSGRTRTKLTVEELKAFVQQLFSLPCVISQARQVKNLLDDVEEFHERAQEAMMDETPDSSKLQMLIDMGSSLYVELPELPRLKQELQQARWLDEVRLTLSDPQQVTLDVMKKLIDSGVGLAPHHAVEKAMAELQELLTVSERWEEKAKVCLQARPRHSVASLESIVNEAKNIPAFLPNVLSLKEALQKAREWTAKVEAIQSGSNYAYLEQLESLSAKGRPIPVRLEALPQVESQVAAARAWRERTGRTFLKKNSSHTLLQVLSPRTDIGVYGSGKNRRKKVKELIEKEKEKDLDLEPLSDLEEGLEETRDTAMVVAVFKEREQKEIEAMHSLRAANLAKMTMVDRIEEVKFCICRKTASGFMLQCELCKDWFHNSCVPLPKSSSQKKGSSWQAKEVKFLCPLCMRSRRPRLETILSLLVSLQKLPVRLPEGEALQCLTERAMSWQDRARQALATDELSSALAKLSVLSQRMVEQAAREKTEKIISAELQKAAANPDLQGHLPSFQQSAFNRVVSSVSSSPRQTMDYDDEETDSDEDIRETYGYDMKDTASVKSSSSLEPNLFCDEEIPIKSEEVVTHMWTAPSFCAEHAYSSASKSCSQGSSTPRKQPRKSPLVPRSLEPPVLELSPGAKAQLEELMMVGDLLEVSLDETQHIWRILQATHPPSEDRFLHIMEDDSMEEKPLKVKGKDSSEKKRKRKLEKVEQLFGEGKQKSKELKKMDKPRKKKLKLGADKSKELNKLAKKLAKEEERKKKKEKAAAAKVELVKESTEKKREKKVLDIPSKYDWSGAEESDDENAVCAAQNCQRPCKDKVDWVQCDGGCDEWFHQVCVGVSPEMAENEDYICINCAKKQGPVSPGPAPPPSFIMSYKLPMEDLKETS

SMILES | IC50 [nM]
CCc1c(-c2cccc(N3CCC(c4ccccc4)C3=O)c2)[nH]c2c(C#N)cnn2c1=O (stereo not drawn) [Compound 423] | 20
CC(C)c1c(-c2cccc(N3CCC(c4ccccc4)C3=O)c2)[nH]c2c(C#N)cnn2c1=O (stereo not drawn) [Compound 424] | 8
C=CCc1c(-c2cnn(C(C)C)c2)[nH]c2c(C#N)cnn2c1=O [Compound 425] | 16
CCc1c(-c2cccc(/C=C/c3ccccc3)c2)[nH]c2c(C#N)cnn2c1=O [Compound 426] | 23
CC(C)c1c(-c2cccc(-c3cccc(C#N)c3)c2)[nH]c2c(C#N)cnn2c1=O [Compound 427] | 39
CC(C)c1c(-c2cccc(-c3cccc(NS(C)(=O)=O)c3)c2)[nH]c2c(C#N)cnn2c1=O [Compound 428] | 14
CC(C)c1c(-c2cccc(-c3ccc(NS(C)(=O)=O)cc3)c2)[nH]c2c(C#N)cnn2c1=O [Compound 429] | 27
CNS(=O)(=O)c1ccc(-c2cccc(-c3[nH]c4c(C#N)cnn4c(=O)c3C(C)C)c2)cc1 [Compound 430] | 32
CC(C)n1cc(-c2[nH]c3c(C#N)cnn3c(=O)c2C2CCC2)cn1 [Compound 431] | 21
CC(C)n1cc(-c2[nH]c3c(C#N)cnn3c(=O)c2C2(C)CCC2)cn1 [Compound 432] | 56
CC(C)c1c(Cl)[nH]c2c(C#N)cnn2c1=O [Example 1, 5-chloro-6-isopropyl-7-oxo-4,7-dihydropyrazolo[1,5-a]pyrimidine-3-carbonitrile] | 4.3
CCc1c(Cl)[nH]c2c(C#N)cnn2c1=O [Example 2, 5-chloro-6-ethyl-7-oxo-4,7-dihydropyrazolo[1,5-a]pyrimidine-3-carbonitrile] | 3
CC(C)c1c(-c2ccoc2)[nH]c2c(C#N)cnn2c1=O [Example 3, 5-(furan-3-yl)-6-isopropyl-7-oxo-4,7-dihydropyrazolo[1,5-a]pyrimidine-3-carbonitrile] | 3.8
CC(C)c1c(-c2ccoc2)n(C)c2c(C#N)cnn2c1=O [Example 4, 5-(furan-3-yl)-6-isopropyl-4-methyl-7-oxo-4,7-dihydropyrazolo[1,5-a]pyrimidine-3-carbonitrile] | 65
CC(C)c1c(-c2cn[nH]c2)[nH]c2c(C#N)cnn2c1=O [Example 5, 6-Isopropyl-7-oxo-5-(1H-pyrazol-4-yl)-4,7-dihydropyrazolo[1,5-a]pyrimidine-3-carbonitrile] | 5.5
CC(C)c1c(-c2cnn(CC3CC3)c2)[nH]c2c(C#N)cnn2c1=O [Example 6, 5-(1-(Cyclopropylmethyl)-1H-pyrazol-4-yl)-6-isopropyl-7-oxo-4,7-dihydropyrazolo[1,5-a]pyrimidine-3-carbonitrile] | 13
CC(C)c1c(-c2cnn(C3(C)CC3)c2)[nH]c2c(C#N)cnn2c1=O [Example 7, 6-Isopropyl-5-(1-(1-methylcyclopropyl)-1H-pyrazol-4-yl)-7-oxo-4,7-dihydropyrazolo[1,5-a]pyrimidine-3-carbonitrile] | 30
CC(C)c1c(-c2cn(C(C)C)nc2F)[nH]c2c(C#N)cnn2c1=O [Example 8, 5-(3-Fluoro-1-isopropyl-1H-pyrazol-4-yl)-6-isopropyl-7-oxo-4,7-dihydropyrazolo[1,5-a]pyrimidine-3-carbonitrile] | 22
CC(C)c1c(-c2cnn(C(C)(C)c3ccccc3)c2)[nH]c2c(C#N)cnn2c1=O [Example 9, 6-Isopropyl-7-oxo-5-(1-(2-phenylpropan-2-yl)-1H-pyrazol-4-yl)-4,7-dihydropyrazolo[1,5-a]pyrimidine-3-carbonitrile] | 40
CC(C)c1c(-c2cnn(-c3cccnc3)c2)[nH]c2c(C#N)cnn2c1=O [Example 10, 6-Isopropyl-7-oxo-5-(1-(pyridin-3-yl)-1H-pyrazol-4-yl)-4,7-dihydropyrazolo[1,5-a]pyrimidine-3-carbonitrile] | 24
CC(C)c1c(-c2cnn(-c3ccncc3)c2)[nH]c2c(C#N)cnn2c1=O [Example 11, 6-Isopropyl-7-oxo-5-(1-(pyridin-4-yl)-1H-pyrazol-4-yl)-4,7-dihydropyrazolo[1,5-a]pyrimidine-3-carbonitrile] | 14
CC(C)c1c(-c2cnn(-c3ccccn3)c2)[nH]c2c(C#N)cnn2c1=O [Example 12, 6-Isopropyl-7-oxo-5-(1-(pyridin-2-yl)-1H-pyrazol-4-yl)-4,7-dihydropyrazolo[1,5-a]pyrimidine-3-carbonitrile] | 18
CNC(=O)C(C)(C)n1cc(-c2[nH]c3c(C#N)cnn3c(=O)c2C(C)C)cn1 [Example 13, 2-(4-(3-Cyano-6-isopropyl-7-oxo-4,7-dihydropyrazolo[1,5-a]pyrimidin-5-yl)-1H-pyrazol-1-yl)-N,2-dimethylpropanamide] | 23

SMILES | IC50 [nM]
CC(C)c1c(-c2cnn(C(C)C)c2F)[nH]c2c(C#N)cnn2c1=O [Example 14, 5-(5-Fluoro-1-isopropyl-1H-pyrazol-4-yl)-6-isopropyl-7-oxo-4,7-dihydropyrazolo[1,5-a]pyrimidine-3-carbonitrile] | 5.3
CC(C)c1c(-c2cnn(C3CCSCC3)c2)[nH]c2c(C#N)cnn2c1=O [Example 17, 6-isopropyl-7-oxo-5-(1-(tetrahydro-2H-thiopyran-4-yl)-1H-pyrazol-4-yl)-4,7-dihydropyrazolo[1,5-a]pyrimidine-3-carbonitrile] | 41
CC(C)c1c(-c2cnn(C3CCS(=O)(=O)CC3)c2)[nH]c2c(C#N)cnn2c1=O [Example 18, 5-(1-(1,1-Dioxidotetrahydro-2H-thiopyran-4-yl)-1H-pyrazol-4-yl)-6-isopropyl-7-oxo-4,7-dihydropyrazolo[1,5-a]pyrimidine-3-carbonitrile] | 21
CC(=O)/C=C/c1cccc(Cn2cc(-c3[nH]c4c(C#N)cnn4c(=O)c3C(C)C)cn2)n1 [Example 19, (E)-6-isopropyl-7-oxo-5-(1-((6-(3-oxobut-1-en-1-yl)pyridin-2-yl)methyl)-1H-pyrazol-4-yl)-4,7-dihydropyrazolo[1,5-a]pyrimidine-3-carbonitrile] | 55
CCc1c[nH]c2c(C#N)cnn2c1=O [Example 20, 6-Ethyl-7-oxo-4,7-dihydropyrazolo[1,5-a]pyrimidine-3-carbonitrile] | 37
CC(C)(C)c1c[nH]c2c(C#N)cnn2c1=O [Example 21, 6-(tert-Butyl)-7-oxo-4,7-dihydropyrazolo[1,5-a]pyrimidine-3-carbonitrile] | 38
CC(C)c1c(CCc2ccccc2)[nH]c2c(C#N)cnn2c1=O [Example 23, 6-isopropyl-7-oxo-5-phenethyl-4,7-dihydropyrazolo[1,5-a]pyrimidine-3-carbonitrile] | 9.8
CCc1c(-c2cccc(I)c2)[nH]c2c(C#N)cnn2c1=O [Example 24, 6-ethyl-5-(3-iodophenyl)-7-oxo-4,7-dihydropyrazolo[1,5-a]pyrimidine-3-carbonitrile] | 7
CCc1c(C(=O)O)[nH]c2c(C#N)cnn2c1=O [Example 25, 3-cyano-6-ethyl-7-oxo-4,7-dihydropyrazolo[1,5-a]pyrimidine-5-carb oxylic acid] | 220
CCc1c(C(N)=O)n(C)c2c(C#N)cnn2c1=O [Example 26, 3-cyano-6-ethyl-4-methyl-7-oxo-4,7-dihydropyrazolo[1,5-a]pyrimidine-5-carboxamide] | 4400
CCc1c(C(=O)NC)n(C)c2c(C#N)cnn2c1=O [Example 27, 3-cyano-6-ethyl-N,4-dimethyl-7-oxo-4,7-dihydropyrazolo[1,5-a]pyrimidine-5-carboxamide] | 3900
CCc1c(-c2nc(C)no2)[nH]c2c(C#N)cnn2c1=O [Example 28, 6-ethyl-5-(3-methyl-1,2,4-oxadiazol-5-yl)-7-oxo-4H-pyrazolo[1,5-a]pyrimidine-3-carbonitrile] | 18
CCc1c(-c2nnc(C)o2)[nH]c2c(C#N)cnn2c1=O [Example 29, 6-ethyl-5-(5-methyl-1,3,4-oxadiazol-2-yl)-7-oxo-4,7-dihydropyrazolo[1,5-a]pyrimidine-3-carbonitrile] | 16
CCc1c(-c2ncc[nH]2)[nH]c2c(C#N)cnn2c1=O [Example 30, 6-ethyl-5-(1H-imidazol-2-yl)-7-oxo-4,7-dihydropyrazolo[1,5-a]pyrimidine-3-carbonitrile] | 12
CCc1c(C(=O)NCC(=O)c2ccccc2)[nH]c2c(C#N)cnn2c1=O [Example 31, 3-cyano-6-ethyl-7-oxo-N-(2-oxo-2-phenylethyl)-4,7-dihydropyrazolo[1,5-a]pyrimidine-5-carboxamide] | 25
CCc1c(-c2ncc(-c3ccccc3)o2)[nH]c2c(C#N)cnn2c1=O [Example 32, 6-ethyl-7-oxo-5-(5-phenyloxazol-2-yl)-4,7-dihydropyrazolo[1,5-a]pyrimidine-3-carbonitrile] | 15
N#Cc1cnn2c(=O)c(CC(F)F)c(-c3ccccc3)[nH]c12 [Example 33, 6-(2,2-Difluoroethyl)-7-oxo-5-phenyl-4H-pyrazolo[1,5-a]pyrimidine-3-carbonitrile] | 9.3
N#Cc1cnn2c(=O)c(C3CCC3)c(-c3ccccc3)[nH]c12 [Example 34, 6-Cyclobutyl-7-oxo-5-phenyl-4H-pyrazolo[1,5-a]pyrimidine-3-carbonitrile] | 9.5
N#Cc1cnn2c(=O)c(C3CCC3)c(-c3cn[nH]c3)[nH]c12 [Example 35, 6-Cyclobutyl-7-oxo-5-(1H-pyrazol-4-yl)-4H-pyrazolo[1,5-a]pyrimidine-3-carbonitrile] | 30
N#Cc1cnn2c(=O)c(C3CCC3)c(-c3cnn(C4CCCCC4)c3)[nH]c12 [Example 36, 6-Cyclobutyl-5-(1-cyclohexylpyrazol-4-yl)-7-oxo-4H-pyrazolo[1,5-a]pyrimidine-3-carbonitrile] | 10.4
C#CCc1c(-c2ccccc2)[nH]c2c(C#N)cnn2c1=O [Example 37, 7-Oxo-5-phenyl-6-(prop-2-yn-1-yl)-4,7-dihydropyrazolo[1,5-a]pyrimidine-3-carbonitrile] | 24
C#CC(C)c1c(-c2cnn(C(C)C)c2)[nH]c2c(C#N)cnn2c1=O (stereo not drawn) [Example 38, 5-(1-isopropylpyrazol-4-yl)-6-(1-methylprop-2-ynyl)-7-oxo-4H-pyrazolo[1,5-a]pyrimidine-3-carbonitrile] | 36
